Source: ChEMBL document CHEMBL4364305, “Medicinal leech antimicrobial peptides lacking toxicity represent a promising alternative strategy to combat antibiotic-resistant pathogens” (Eur J Med Chem, 2019)
Converted amounts (≈) assume the structure as drawn. The source made the active and inactive calls. The rule behind the calls is not given here. Residues, ends and D or L forms follow the SMILES beside them.

Experiments:
Chlamydia trachomatis = experiment: Antibacterial activity against Chlamydia trachomatis D/UW-3/Cx infected in mouse McCoy cells assessed as reduction in infected cells preincubated for 2 hrs and measured after 48 hrs by immunofluorescence method; format: functional
Escherichia coli [1] = experiment: Antibacterial activity against Escherichia coli MG1655 assessed as reduction in bacterial cell growth incubated for 24 hrs by microtiter dilution method; format: functional; settings: MG1655, 24 h
Bacillus subtilis [2] = experiment: Antibacterial activity against Bacillus subtilis 168 HT assessed as reduction in bacterial cell growth incubated for 24 hrs by microtiter dilution method; format: functional
[3] = Cytotoxicity against mouse McCoy cells assessed as cell viability at 0.5 to 4 times of antibacterial MIC incubated for 48 hrs by calcein AM and ethidium homodimer-1 staining based epifluorescence microscopic method relative to control; settings: read-out: Activity
Escherichia coli [4] = experiment: Antibacterial activity against Escherichia coli MG1655 assessed as reduction in bacterial cell structural integrity at 0.5 antibacterial MIC incubated for 8 or 24 hrs by scanning electron microscopy; format: functional, organism-based
Bacillus subtilis [5] = experiment: Antibacterial activity against Bacillus subtilis 168 HT assessed as reduction in bacterial cell structural integrity at 0.5 antibacterial MIC incubated for 8 or 24 hrs by scanning electron microscopy; format: functional, organism-based
Lipid bilayer [6] = experiment: Disruption of large POPC:POPS unilamellar vesicle membrane assessed as release of carboxyfluorescein measured after 1 min by fluorescence based method
Lipid bilayer [7] = experiment: Disruption of large POPS unilamellar vesicle membrane assessed as release of carboxyfluorescein measured after 1 min by fluorescence based method
Lipid bilayer [8] = experiment: Disruption of large POPC:DOPG unilamellar vesicle membrane assessed as release of carboxyfluorescein measured after 1 min by fluorescence based method
Lipid bilayer [9] = experiment: Disruption of large POPC unilamellar vesicle membrane assessed as release of carboxyfluorescein measured after 1 min by fluorescence based method
Bacillus subtilis [10] = experiment: Induction of morphological changes in Bacillus subtilis 168 HT assessed as cellular debris formation at 0.5 antibacterial MIC incubated for 8 or 24 hrs by scanning electron microscopy; format: functional, organism-based
[11] = Hemolytic activity in human Erythrocyte at 100 uM measured after 1 hr relative to control; format: ADME, cell-based; settings: erythrocytes, read-out: Activity
[12] = Cytotoxicity against mouse McCoy cells assessed as reduction in cell viability at 4 times of antibacterial MIC incubated for 48 hrs by calcein AM and ethidium homodimer-1 staining based epifluorescence microscopic method relative to control
[13] = Hemolytic activity in human Erythrocyte at 50 uM measured after 1 hr relative to control; format: ADME, cell-based; settings: erythrocytes, read-out: Activity
[14] = Hemolytic activity in human Erythrocyte at 6.25 uM measured after 1 hr relative to control; format: ADME, cell-based; settings: erythrocytes, read-out: Activity

| MIC90 (Chlamydia trachomatis) [µM] | MIC (Escherichia coli [1]) [µM] | MIC (Bacillus subtilis [2]) [µM] | Structure (SMILES) | other results |
| --- | --- | --- | --- | --- |
| 12.5 (≈ 15.9 µg/mL) | 100 (≈ 128 µg/mL) | 12.6 (≈ 16.1 µg/mL) | CC[C@H](C)[C@H](NC(=O)[C@H](CC(C)C)NC(=O)[C@@H](N)CS)C(=O)N[C@@H](CCSC)C(=O)N[C@@H](CCCCN)C(=O)N[C@H](C(=O)N[C@@H](CCCNC(=N)N)C(=O)N[C@@H](CCCNC(=N)N)C(=O)N[C@@H](CCCCN)C(=O)N[C@@H](CCCCN)C(=O)O)C(C)C (H-CLIMKVRRKK-OH) | – |
| 3.1 (≈ 4.83 µg/mL) | 10.3 (≈ 16 µg/mL) | 10.3 (≈ 16 µg/mL) | CC[C@H](C)[C@H](NC(=O)[C@H](CCCNC(=N)N)NC(=O)[C@H](CCSC)NC(=O)[C@@H](NC(=O)[C@H](CCCNC(=N)N)NC(=O)[C@@H](N)Cc1ccccc1)[C@@H](C)CC)C(=O)N[C@@H](CC(C)C)C(=O)N[C@@H](CCCNC(=N)N)C(=O)N[C@H](C(=O)N[C@@H](CC(C)C)C(=O)N[C@@H](CCCCN)C(=O)N[C@@H](CC(C)C)C(=O)O)C(C)C (H-FRIMRILRVLKL-OH) | viability at 48 h [3]: 100%; Activity (Escherichia coli [4]): Active; Activity (Bacillus subtilis [5]): Active; Activity (Lipid bilayer [6]): Dose-dependent effect; Activity (Lipid bilayer [7]): Dose-dependent effect; Activity (Lipid bilayer [8]): Dose-dependent effect; Activity (Lipid bilayer [9]): inactive; Activity (Bacillus subtilis [10]): inactive |
| 12.5 (≈ 21.3 µg/mL) | 37.6 (≈ 64 µg/mL) | 9.4 (≈ 16 µg/mL) | CC[C@H](C)[C@H](N)C(=O)N[C@@H](CO)C(=O)N[C@@H](CCCNC(=N)N)C(=O)N[C@@H](C)C(=O)N[C@@H](CS)C(=O)N[C@@H](CC(C)C)C(=O)N[C@H](C(=O)N[C@@H](CCSC)C(=O)N[C@@H](CCCCN)C(=O)N[C@H](C(=O)N[C@@H](CCCNC(=N)N)C(=O)N[C@@H](CCCNC(=N)N)C(=O)N[C@@H](CCCCN)C(=O)N[C@@H](CCCCN)C(=O)O)C(C)C)[C@@H](C)CC (H-ISRACLIMKVRRKK-OH) | – |
| 12.5 (≈ 19.7 µg/mL) | > 81 | 40.7 (≈ 64.1 µg/mL) | CC[C@H](C)[C@H](NC(=O)[C@@H](N)CC(C)C)C(=O)N[C@H](C(=O)N[C@@H](CC(C)C)C(=O)N[C@H](C(=O)N[C@@H](CS)C(=O)N[C@@H](CCCNC(=N)N)C(=O)N[C@@H](CCCCN)C(=O)N[C@@H](CCCCN)C(=O)N[C@@H](CCCCN)C(=O)N[C@@H](CCCCN)C(=O)N1CCC[C@H]1C(=O)N[C@@H](Cc1ccccc1)C(=O)O)[C@@H](C)O)C(C)C (H-LIVLTCRKKKKPF-OH) | Activity [12]: 100% |
| > 100 | > 92 | > 92 | CC[C@H](C)[C@H](NC(=O)CNC(=O)[C@@H](NC(=O)[C@H](CCCCN)NC(=O)[C@@H](NC(=O)CNC(=O)[C@H](CC(C)C)NC(=O)[C@H](Cc1c[nH]c2ccccc12)NC(=O)[C@H](CCCNC(=N)N)NC(=O)[C@@H](N)CC(C)C)[C@@H](C)O)C(C)C)C(=O)N[C@@H](CC(C)C)C(=O)N[C@@H](CCCCN)C(=O)O (H-LRWLGTKVGILK-OH) | – |
| 6.3 (≈ 11.7 µg/mL) | 17.2 (≈ 32.1 µg/mL) | 8.6 (≈ 16 µg/mL) | CC(C)C[C@H](NC(=O)[C@H](Cc1ccccc1)NC(=O)[C@H](CS)NC(=O)[C@@H](NC(=O)[C@H](CC(C)C)NC(=O)[C@H](CCCNC(=N)N)NC(=O)[C@H](Cc1c[nH]c2ccccc12)NC(=O)[C@@H](N)CCCNC(=N)N)C(C)C)C(=O)N[C@@H](CS)C(=O)N[C@@H](CCCNC(=N)N)C(=O)N[C@@H](CCCNC(=N)N)C(=O)N[C@@H](CCCCN)C(=O)N[C@@H](CCCCN)C(=O)N[C@H](C(=O)O)C(C)C (H-RWRLVCFLCRRKKV-OH) | hemolysis at 1 h, 100 µM [11]: 30%; viability at 48 h [3]: 100%; Activity (Escherichia coli [4]): Active; Activity (Bacillus subtilis [5]): Active; Activity (Lipid bilayer [6]): Dose-dependent effect; Activity (Lipid bilayer [7]): Dose-dependent effect; Activity (Lipid bilayer [8]): Dose-dependent effect; Activity (Lipid bilayer [9]): inactive |

The next lines start with the molecule.

| Structure (SMILES) | MIC90 (Chlamydia trachomatis) [µM] | MIC (Escherichia coli [1]) [µM] | MIC (Bacillus subtilis [2]) [µM] | other results |
| --- | --- | --- | --- | --- |
| CC[C@H](C)[C@H](NC(=O)[C@H](CCCCN)NC(=O)[C@H](Cc1ccccc1)NC(=O)[C@H](CCCNC(=N)N)NC(=O)[C@H](CCCCN)NC(=O)[C@@H](NC(=O)[C@@H](NC(=O)[C@H](Cc1ccccc1)NC(=O)CN)[C@@H](C)CC)C(C)C)C(=O)N[C@@H](CC(C)C)C(=O)N[C@H](C(=O)O)C(C)C (H-GFIVKRFKILV-OH) | > 100 | > 97 | 97 (≈ 128 µg/mL) | hemolysis at 1 h, 100 µM [11]: 30%; Activity [12]: 100% |
| CC[C@H](C)[C@H](N)C(=O)N[C@@H](CCCCN)C(=O)N[C@H](C(=O)N[C@H](C(=O)N[C@@H](C)C(=O)N1CCC[C@H]1C(=O)N[C@@H](CCCCN)C(=O)N[C@@H](CCCCN)C(=O)N[C@H](C(=O)N[C@@H](CCCCN)C(=O)N[C@@H](CC(C)C)C(=O)O)[C@@H](C)CC)C(C)C)[C@@H](C)CC (H-IKIVAPKKIKL-OH) | > 100 | > 102 | > 102 | – |
| CC[C@H](C)[C@H](NC(=O)[C@@H](NC(=O)[C@H](CCCCN)NC(=O)[C@H](CCCCN)NC(=O)[C@H](Cc1ccccc1)NC(=O)[C@@H](N)CCCCN)C(C)C)C(=O)N[C@@H](Cc1c[nH]c2ccccc12)C(=O)N[C@@H](CCCCN)C(=O)N[C@@H](CO)C(=O)N[C@@H](Cc1ccccc1)C(=O)N[C@@H](CC(C)C)C(=O)O (H-KFKKVIWKSFL-OH) | 12.5 (≈ 17.8 µg/mL) | 90 (≈ 128 µg/mL) | 45 (≈ 64.1 µg/mL) | hemolysis at 1 h, 50 µM [13]: 50%; viability at 48 h [3]: 100% |
| CC[C@H](C)[C@H](NC(=O)[C@@H](NC(=O)[C@H](CCCNC(=N)N)NC(=O)[C@@H](NC(=O)[C@H](CCCNC(=N)N)NC(=O)[C@H](CCCNC(=N)N)NC(=O)[C@@H](NC(=O)[C@H](CCCNC(=N)N)NC(=O)[C@@H](NC(=O)[C@H](CC(C)C)NC(=O)[C@@H](NC(=O)[C@@H]1CCCN1C(=O)[C@@H](N)CCCNC(=N)N)[C@@H](C)CC)[C@@H](C)CC)C(C)C)[C@@H](C)CC)C(C)C)C(=O)O (H-RPILIRVRRIRVI-OH) | > 100 | 77.1 (≈ 128 µg/mL) | 9.7 (≈ 16.1 µg/mL) | Activity [12]: Toxic |
| CC[C@H](C)[C@H](NC(=O)[C@H](CCCCN)NC(=O)[C@@H](N)Cc1c[nH]c2ccccc12)C(=O)N[C@@H](Cc1ccccc1)C(=O)N[C@@H](CCCCN)C(=O)N[C@@H](CC(C)C)C(=O)N[C@@H](CCCCN)C(=O)N[C@@H](CC(C)C)C(=O)N[C@@H](CCCNC(=N)N)C(=O)N[C@@H](CCSC)C(=O)N[C@@H](CC(C)C)C(=O)N[C@@H](Cc1c[nH]c2ccccc12)C(=O)O (H-WKIFKLKLRMLW-OH) | 50 (≈ 83.1 µg/mL) | 77 (≈ 128 µg/mL) | 38.5 (≈ 64 µg/mL) | hemolysis at 1 h, 6.25 µM [14]: 50% |
| CC[C@H](C)[C@H](NC(=O)CNC(=O)[C@H](C)NC(=O)[C@H](Cc1cnc[nH]1)NC(=O)[C@@H](NC(=O)[C@H](CCCCN)NC(=O)[C@H](Cc1ccc(O)cc1)NC(=O)[C@@H]1CCCN1C(=O)[C@@H](NC(=O)[C@H](CC(C)C)NC(=O)[C@H](CCCCN)NC(=O)[C@H](CCCCN)NC(=O)[C@@H](N)Cc1c[nH]c2ccccc12)C(C)C)[C@@H](C)CC)C(=O)O (H-WKKLVPYKIHAGI-OH) | > 100 | > 82 | > 82 | – |
| CC[C@H](C)[C@H](NC(=O)CN)C(=O)NCC(=O)N[C@@H](C)C(=O)N[C@H](C(=O)N[C@@H](CC(C)C)C(=O)N[C@@H](CCCCN)C(=O)N[C@H](C(=O)N[C@@H](CC(C)C)C(=O)N[C@H](C(=O)N[C@H](C(=O)NCC(=O)N[C@@H](CC(C)C)C(=O)N1CCC[C@H]1C(=O)N[C@@H](C)C(=O)N[C@@H](CC(C)C)C(=O)N[C@H](C(=O)N[C@@H](CO)C(=O)N[C@@H](Cc1c[nH]c2ccccc12)C(=O)N[C@H](C(=O)N[C@@H](CCCCN)C(=O)N[C@@H](CCCNC(=N)N)C(=O)N[C@@H](CCCCN)C(=O)N[C@@H](CCCNC(=N)N)C(=O)N[C@@H](CCC(N)=O)C(=O)N[C@@H](CCC(N)=O)C(N)=O)[C@@H](C)CC)[C@@H](C)CC)[C@@H](C)O)[C@@H](C)O)C(C)C)C(C)C [MELITTIN] | 2 (≈ 5.69 µg/mL) | – | – | – |
